These results are taken from US9771352B2, “Hydroxyalkyl-substituted phenyltriazole derivatives and uses thereof” (BAYER PHARMA AKTIENGESELLSCHAFT, priority 2014, dated 2017).

One experiment addresses T1, human V2 receptor (Homo sapiens, UniProt P30518).
T1 construct: expressed in transfected cells; host or cells: CHO K1 (ATCC) expressing firefly luciferase under a CRE-responsive promoter
The experiment can be described thus: Cellular in vitro assay for determining vasopressin receptor activity, V2 receptor cell line (CRE-luciferase). The format is cell-based. Particulars: CHO cell line transfected with human V2 receptor; [Arg8]-vasopressin at EC50; compounds of the invention (Table 1A); read-out: IC50 hV2. The protocol:
(§1) The identification of agonists and antagonists of the V1a and V2 vasopressin receptors from humans, rats and dogs as well as the quantification of the activity of the compounds of the invention is carried out using recombinant cell lines. These cell lines originally derive from a hamster's ovary epithelial cell (Chinese Hamster Ovary, CHO K1, ATCC: American Type Culture Collection, Manassas, Va. 20108, USA). The test cell lines constitutively express the human, rat or dog V1a or V2 receptors. In case of the […] V1a receptors, cells are also stably transfected with a modified form of the calcium-sensitive photoproteins aequorin (human and rat V1a) or obelin (dog V1a), which, after reconstitution with the cofactor coelenterazine, emit light when there are increases in free calcium concentrations [Rizzuto R, Simpson A W, Brini M, Pozzan T, Nature 358, 325-327 (1992); Illarionov B A, Bondar V S, Illarionova V A, Vysotski E S, Gene 153 (2), 273-274 (1995)]. The resulting vasopressin receptor cells react to stimulation of the recombinantly expressed V1a receptors by intracellular release of calcium ions, which can be quantified by the resulting photoprotein luminescence. The Gs-coupled V2 receptors are stably transfected into cell lines expressing the gene for firefly luciferase under control of a CRE-responsible promoter. Activation of V2 receptors induces the activation of the CRE-responsive promoter via cAMP increase, thereby inducing the expression of firefly luciferase. The light emitted by photoproteins of V1a cell lines as well as the light emitted by firefly luciferase of V2 cell lines corresponds to the activation or inhibition of the respective vasopressin receptor. The bioluminescence of the cell lines is detected using a suitable luminometer [Milligan G, Marshall F, Rees S, Trends in Pharmacological Sciences 17, 235-237 (1996)].
On the day before the assay, the cells are plated out in culture medium (DMEM/F12, 2% FCS, 2 mM glutamine, 10 mM HEPES) in 384-well microtiter plates and kept in a cell incubator (96% humidity, 5% v/v CO2, 37° C.). […] Upon addition of the cell lysis reagent Triton and the substrate luciferin, luminescence of firefly luciferase is measured in a luminometer.
(§2) Table 1A below lists individual IC50 values for the compounds of the invention (including diastereomeric mixtures as well as separated, enantiopure diastereomers) that were obtained from cell lines transfected with the human V1a or V2 receptor: […]

In another experiment the target is T2, human V1a receptor (Homo sapiens, UniProt P37288).
T2 construct: expressed in transfected cells; host or cells: CHO K1 (ATCC), also stably transfected with modified aequorin
The experiment can be described thus: Cellular in vitro assay for determining vasopressin receptor activity, V1a receptor cell line (photoprotein luminescence). The format is cell-based. Particulars: CHO cell line transfected with human V1a receptor; [Arg8]-vasopressin at EC50; compounds of the invention (Table 1A); read-out: IC50 hV1a. The protocol:
as §1
On the day before the assay, the cells are plated out in culture medium (DMEM/F12, 2% FCS, 2 mM glutamine, 10 mM HEPES, 5 μg/ml coelenterazine) in 384-well microtiter plates and kept in a cell incubator (96% humidity, 5% v/v CO2, 37° C.). On the day of the assay, test compounds in various concentrations are placed for 10 minutes in the wells of the microtiter plate before the agonist [Arg^8]-vasopressin at EC50 concentration is added. The resulting light signal is measured immediately in the luminometer.
as §2

T1 sequence (P30518 whole entry): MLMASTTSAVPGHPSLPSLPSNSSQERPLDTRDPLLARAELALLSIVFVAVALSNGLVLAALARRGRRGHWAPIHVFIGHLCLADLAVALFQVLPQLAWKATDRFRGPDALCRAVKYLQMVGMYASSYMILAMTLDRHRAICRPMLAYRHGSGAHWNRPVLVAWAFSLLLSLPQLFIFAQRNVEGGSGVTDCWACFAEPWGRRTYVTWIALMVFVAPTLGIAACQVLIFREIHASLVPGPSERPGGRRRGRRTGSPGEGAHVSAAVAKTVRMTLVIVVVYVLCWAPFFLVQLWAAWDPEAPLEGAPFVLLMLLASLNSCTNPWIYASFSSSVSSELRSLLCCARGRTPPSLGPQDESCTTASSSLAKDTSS
T2 sequence (P37288 whole entry): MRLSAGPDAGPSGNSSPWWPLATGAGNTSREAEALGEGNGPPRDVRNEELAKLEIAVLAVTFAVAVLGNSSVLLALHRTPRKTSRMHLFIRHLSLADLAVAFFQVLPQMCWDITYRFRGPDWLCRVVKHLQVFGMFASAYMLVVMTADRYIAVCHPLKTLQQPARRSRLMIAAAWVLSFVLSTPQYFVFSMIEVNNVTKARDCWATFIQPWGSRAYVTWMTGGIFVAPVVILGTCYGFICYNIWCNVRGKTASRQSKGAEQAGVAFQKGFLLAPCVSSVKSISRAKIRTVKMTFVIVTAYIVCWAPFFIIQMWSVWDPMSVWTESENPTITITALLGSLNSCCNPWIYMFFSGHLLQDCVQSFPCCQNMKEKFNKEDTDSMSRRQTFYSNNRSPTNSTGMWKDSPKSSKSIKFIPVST

For the compound `COc1ccccc1-n1nc(Cn2nc(-c3ccc(Cl)cc3)n(C[C@H](O)C(F)(F)F)c2=O)nc1C(C)O` (mixture of isomers) [Example 10, 5-(4-Chlorophenyl)-2-({5-[(1RS)-1-hydroxyethyl]-1-(2-methoxyphenyl)-1H-1,2,4-triazol-3-yl}-methyl)-4-[(2S)-3,3,3-trifluoro-2-hydroxypropyl]-2,4-dihydro-3H-1,2,4-triazol-3-one], the IC50 on human V2 receptor and on human V1a receptor was 1.4 nM in each case.
Take `CC(O)c1nc(Cn2nc(-c3ccc(Cl)cc3)n(C[C@H](O)C(F)(F)F)c2=O)nn1-c1cc(F)cc(Cl)c1` (mixture of isomers) [Example 13, 2-({1-(3-Chloro-5-fluorophenyl)-5-[(1RS)-1-hydroxyethyl]-1H-1,2,4-triazol-3-yl}methyl)-5-(4-chlorophenyl)-4-[(2S)-3,3,3-trifluoro-2-hydroxypropyl]-2,4-dihydro-3H-1,2,4-triazol-3-one]: the values for the 50% inhibitory concentration (IC50) on human V2 receptor and at human V1a receptor were 1.4 nM and 6.2 nM, respectively.
The matching figures for `CC(O)c1nc(Cn2nc(-c3ccc(Cl)cc3)n(C[C@H](O)C(F)(F)F)c2=O)nn1-c1ccccc1` (mixture of isomers) [Example 16, 5-(4-Chlorophenyl)-2-({5-[(1RS)-1-hydroxyethyl]-1-phenyl-1H-1,2,4-triazol-3-yl}methyl)-4-[(2S)-3,3,3-trifluoro-2-hydroxypropyl]-2,4-dihydro-3H-1,2,4-triazol-3-one]: 6 nM and 3.1 nM.
The like results for `CC(O)c1nc(Cn2nc(-c3ccc(Cl)cc3)n(C[C@H](O)C(F)(F)F)c2=O)nn1-c1cccc(C(F)F)c1` (mixture of isomers) [Example 19, 5-(4-Chlorophenyl)-2-({1-[3-(difluoromethyl)phenyl]-5-[(1RS)-1-hydroxyethyl]-1H-1,2,4-triazol-3-yl}methyl)-4-[(2S)-3,3,3-trifluoro-2-hydroxypropyl]-2,4-dihydro-3H-1,2,4-triazol-3-one] were, in that order, 1.4 nM and 12.4 nM.
As to `CC(O)c1nc(Cn2nc(-c3ccc(Cl)cc3)n(C[C@H](O)C(F)(F)F)c2=O)nn1-c1cccc(C(F)(F)F)c1` (mixture of isomers) [Example 22, 5-(4-Chlorophenyl)-2-({5-[(1RS)-1-hydroxyethyl]-1-[3-(trifluoromethyl)phenyl]-1H-1,2,4-triazol-3-yl}methyl)-4-[(2S)-3,3,3-trifluoro-2-hydroxypropyl]-2,4-dihydro-3H-1,2,4-triazol-3-one], the figures for the half-inhibitory concentration (IC50) at human V2 receptor and on human V1a receptor were 2.3 nM and 24.4 nM, respectively.
For `CC(O)c1nc(Cn2nc(-c3ccc(Cl)cc3)n(C[C@H](O)C(F)(F)F)c2=O)nn1-c1cc(F)cc(F)c1` (mixture of isomers) [Example 25, 5-(4-Chlorophenyl)-2-({1-(3,5-difluorophenyl)-5-[(1RS)-1-hydroxyethyl]-1H-1,2,4-triazol-3-yl}-methyl)-4-[(2S)-3,3,3-trifluoro-2-hydroxypropyl]-2,4-dihydro-3H-1,2,4-triazol-3-one], the values for the concentration for half-maximal inhibition (IC50) on human V2 receptor and at human V1a receptor were 3.6 nM and 7.2 nM, respectively.
For `Cc1cccc(-n2nc(Cn3nc(-c4ccc(Cl)cc4)n(C[C@H](O)C(F)(F)F)c3=O)nc2C(C)O)c1` (mixture of isomers) [Example 28, 5-(4-Chlorophenyl)-2-({5-[(1RS)-1-hydroxyethyl]-1-(3-methylphenyl)-1H-1,2,4-triazol-3-yl}-methyl)-4-[(2S)-3,3,3-trifluoro-2-hydroxypropyl]-2,4-dihydro-3H-1,2,4-triazol-3-one], the IC50 (as a rule, the concentration needed to halve the response being measured) on human V2 receptor came out at 0.2 nM; at human V1a receptor, 1.3 nM.
For `CCc1ccccc1-n1nc(Cn2nc(-c3ccc(Cl)cc3)n(C[C@H](O)C(F)(F)F)c2=O)nc1C(C)O` (mixture of isomers) [Example 31, 5-(4-Chlorophenyl)-2-({1-(2-ethylphenyl)-5-[(1RS)-1-hydroxyethyl]-1H-1,2,4-triazol-3-yl}-methyl)-4-[(2S)-3,3,3-trifluoro-2-hydroxypropyl]-2,4-dihydro-3H-1,2,4-triazol-3-one], the IC50 on human V2 receptor amounted to 0.9 nM; on human V1a receptor, 1.6 nM.
In the case of `CC(O)c1nc(Cn2nc(-c3ccc(Cl)cc3)n(C[C@H](O)C(F)(F)F)c2=O)nn1-c1ccc(F)cc1Cl` (mixture of isomers) [Example 34, 2-({1-(2-Chloro-4-fluorophenyl)-5-[(1RS)-1-hydroxyethyl]-1H-1,2,4-triazol-3-yl}methyl)-5-(4-chlorophenyl)-4-[(2S)-3,3,3-trifluoro-2-hydroxypropyl]-2,4-dihydro-3H-1,2,4-triazol-3-one], the 50% inhibitory concentration (IC50) on human V2 receptor worked out at 1.2 nM; on human V1a receptor, 0.4 nM.
The matching figures for `COc1ccc(F)cc1-n1nc(Cn2nc(-c3ccc(Cl)cc3)n(C[C@H](O)C(F)(F)F)c2=O)nc1C(C)O` (mixture of isomers) [Example 37, 5-(4-Chlorophenyl)-2-({1-(5-fluoro-2-methoxyphenyl)-5-[(1RS)-1-hydroxyethyl]-1H-1,2,4-triazol-3-yl}methyl)-4-[(2S)-3,3,3-trifluoro-2-hydroxypropyl]-2,4-dihydro-3H-1,2,4-triazol-3-one]: 0.7 nM and 0.5 nM.
For the compound `CC(O)c1nc(Cn2nc(-c3ccc(Cl)cc3)n(C[C@H](O)C(F)(F)F)c2=O)nn1-c1ccccc1F` (mixture of isomers) [Example 40, 5-(4-Chlorophenyl)-2-({1-(2-fluorophenyl)-5-[(1RS)-1-hydroxyethyl]-1H-1,2,4-triazol-3-yl}-methyl)-4-[(2S)-3,3,3-trifluoro-2-hydroxypropyl]-2,4-dihydro-3H-1,2,4-triazol-3-one], the IC50 was 7.2 nM at human V2 receptor and 1.5 nM at human V1a receptor.
Regarding `CC(O)c1nc(Cn2nc(-c3ccc(Cl)cc3)n(C[C@H](O)C(F)(F)F)c2=O)nn1-c1ccc(F)c(Cl)c1` (mixture of isomers) [Example 43, 2-({1-(3-Chloro-4-fluorophenyl)-5-[(1RS)-1-hydroxyethyl]-1H-1,2,4-triazol-3-yl}methyl)-5-(4-chlorophenyl)-4-[(2S)-3,3,3-trifluoro-2-hydroxypropyl]-2,4-dihydro-3H-1,2,4-triazol-3-one], the results for the IC50 at human V2 receptor and at human V1a receptor were 1.2 nM and 6.2 nM, respectively.
Take `CC(O)c1nc(Cn2nc(-c3ccc(Cl)cc3)n(C[C@H](O)C(F)(F)F)c2=O)nn1-c1cc(Cl)cc(Cl)c1` (mixture of isomers) [Example 46, 5-(4-Chlorophenyl)-2-({1-(3,5-dichlorophenyl)-5-[(1RS)-1-hydroxyethyl]-1H-1,2,4-triazol-3-yl}-methyl)-4-[(2S)-3,3,3-trifluoro-2-hydroxypropyl]-2,4-dihydro-3H-1,2,4-triazol-3-one]: the IC50 is 2.1 nM at human V2 receptor and 6.3 nM at human V1a receptor.
Regarding `CC(O)c1nc(Cn2nc(-c3ccc(Cl)cc3)n(C[C@H](O)C(F)(F)F)c2=O)nn1-c1cc(Cl)ccc1Cl` (mixture of isomers) [Example 49, 5-(4-Chlorophenyl)-2-({1-(2,5-dichlorophenyl)-5-[(1RS)-1-hydroxyethyl]-1H-1,2,4-triazol-3-yl}-methyl)-4-[(2S)-3,3,3-trifluoro-2-hydroxypropyl]-2,4-dihydro-3H-1,2,4-triazol-3-one], the IC50 on human V2 receptor is 12.6 nM; on human V1a receptor, 1.8 nM.
As for `CC(O)c1nc(Cn2nc(-c3ccc(Cl)cc3)n(C[C@H](O)C(F)(F)F)c2=O)nn1-c1cccc(Cl)c1F` (mixture of isomers) [Example 52, 2-({1-(3-Chloro-2-fluorophenyl)-5-[(1RS)-1-hydroxyethyl]-1H-1,2,4-triazol-3-yl}methyl)-5-(4-chlorophenyl)-4-[(2S)-3,3,3-trifluoro-2-hydroxypropyl]-2,4-dihydro-3H-1,2,4-triazol-3-one], the IC50 came out at 0.4 nM at human V2 receptor and 3.9 nM at human V1a receptor.
As for `CC(O)c1nc(Cn2nc(-c3ccc(Cl)cc3)n(C[C@H](O)C(F)(F)F)c2=O)nn1-c1cc(F)ccc1Cl` (single isomer, unassigned) [Example 59], the IC50 at human V2 receptor stood at 2.4 nM.
On to `CC(O)c1nc(Cn2nc(-c3ccc(Cl)cc3)n(C[C@H](O)C(F)(F)F)c2=O)nn1-c1cc(F)ccc1Cl` (single isomer, unassigned) [Example 60], for which, at human V2 receptor, the IC50 was 5.2 nM.
